Measured values reported in patent US11261196B2, “Salt serving as AKT inhibitor and crystal thereof” (HARBIN ZHENBAO PHARMACEUTICAL CO., LTD., priority 2017, dated 2022).
“And” between values parts separate entries of the source, which are not always exact repeats. Equal values may be shown once. “Also recorded” adds a separate entry of the source. Read-outs that look alike come from different tables or passages of the source.

Legend:
[1] = Stability test of the crystal form (accelerated conditions, HPLC related substances); assay type: physicochemical
Procedure: […] The sample was analyzed after 10 days, 1 month and 2 months.
1.2 Preparation of Diluent and Mobile Phase
Diluent: acetonitrile:water (1:1) was used as diluent
For example: 100 mL of pure water and 100 mL of pure acetonitrile were mixed in a glass bottle, followed by degassing with ultrasound for 10 minutes, then cooled down to room temperature.
Mobile phase A: 0.1% phosphoric acid aqueous solution
For example: 2.0 mL phosphoric acid was added into 2000 mL water, followed by ultrasound treatment for 10 minutes, the solution was mixed well and cooled down to room temperature as mobile phase A.
Mobile phase B: acetonitrile
Acetonitrile was used as mobile phase B.
1.3 Preparation of the Reference Solution (0.25 mg/mL Calculated by the Free Base)
The sample of the 0th day was used as reference sample, 16 mL of diluent was added thereto, followed by ultrasound treatment for 5 minutes, and the solution was mixed well. Then the solution was further subjected to 1-fold dilution and marked as STD-1 and STD-2, respectively.
1.4 Preparation of Sample Solution for Testing Sensitivity
Reference solution STD-1 (the sample of the 0th day) was subjected to 2000-fold dilution, noted as LOQ.
1.5 Preparation of the Sample Solution (0.25 mg/mL Calculated by the Freebase)
The sample was taken out and restored to room temperature and 16 mL diluent was added for dissolution. The solution was further subjected to 1-fold dilution to be used as sample solution to detect the content of related substances.

[2] = Solubility test of the crystal form in different solvents; assay type: physicochemical; conditions: 25±2° C.; for solubility at 30 min: 25 °C, thermodynamic from solid, read-out: Solubility classification
Procedure: 10 mg of the crystal form of the compound of formula (I) was weighed accurately and placed in a glass bottle, 1 mL solvent was added thereto, the solution was shaken vigorously for 30 seconds every 5 minutes under 25±2° C., the dissolution phenomenon within 30 minutes was observed. The corresponding data was recorded. 1 mg of the insoluble sample in step 2.1 was weighed accurately and placed in a glass bottle, a suitable solvent was added thereto, the solution was shaken vigorously for 30 seconds every 5 minutes under 25±2° C., the dissolution phenomenon within 30 minutes was observed. The corresponding data was recorded. [table]

AKT2 = target: T1, AKT2 (Homo sapiens, UniProt P31751); experiment: AKT enzyme activity test (LANCE TR-FRET), AKT2; assay type: biochemical
T1 construct: purchased life technology
T1 sequence (P31751 whole entry): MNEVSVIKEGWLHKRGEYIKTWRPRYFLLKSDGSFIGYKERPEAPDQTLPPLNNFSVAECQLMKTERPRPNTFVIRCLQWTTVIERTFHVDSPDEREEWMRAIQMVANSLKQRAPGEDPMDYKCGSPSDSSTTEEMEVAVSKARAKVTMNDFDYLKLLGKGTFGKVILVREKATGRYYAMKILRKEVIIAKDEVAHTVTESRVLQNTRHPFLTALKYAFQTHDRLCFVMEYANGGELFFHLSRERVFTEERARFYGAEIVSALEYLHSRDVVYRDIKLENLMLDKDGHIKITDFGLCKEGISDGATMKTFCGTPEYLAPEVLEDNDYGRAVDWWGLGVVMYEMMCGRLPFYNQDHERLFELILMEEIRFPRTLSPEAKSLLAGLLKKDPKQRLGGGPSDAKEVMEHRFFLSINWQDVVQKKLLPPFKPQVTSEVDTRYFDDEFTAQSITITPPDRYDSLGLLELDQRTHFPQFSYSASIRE
From the text: (§1) AKT, also known as protein kinase B (PKB), is a serine/threonine specific protein kinase, mainly including AKT1, AKT2 and AKT3. The AKT signaling pathway plays an important role in various cellular processes such as glucose metabolism, apoptosis, cell proliferation transcription and cell migration. This study intends to analyze the inhibitory effect of the crystal form of the compound of formula (I) on the kinase activity of AKT family members.
(§2) In this experiment, the homogeneous time-resolved fluorescence […] energy transfer (LANCE TR-FRET®) method was used. The enzymes, biotinylated polypeptide substrates and the compound to be tested were mixed in the detection plate, and ATP was added to initiate the reaction and the mixture was incubated. After the reaction, EDTA was added to terminate the reaction, and Eu-labeled antibody was added at the same time to carry out the reaction and the reaction was detected. The detection plate was analyzed using Envision from PE Company, and the analysis mode was TR-FRET, the data were expressed by fluorescence signals at 665 nm and 615 nm, respectively.
(§3) Compound preparation: the test compound and the reference compound were diluted with 100% DMSO, the initial concentrations of the compounds were 10 μM, and the compounds were 3-fold gradient diluted into 10 concentrations. […]

AKT3 = target: T2, AKT3 (Homo sapiens, UniProt Q9Y243); experiment: AKT enzyme activity test (LANCE TR-FRET), AKT3; assay type: biochemical
T2 construct: purchased life technology
T2 sequence (Q9Y243 whole entry): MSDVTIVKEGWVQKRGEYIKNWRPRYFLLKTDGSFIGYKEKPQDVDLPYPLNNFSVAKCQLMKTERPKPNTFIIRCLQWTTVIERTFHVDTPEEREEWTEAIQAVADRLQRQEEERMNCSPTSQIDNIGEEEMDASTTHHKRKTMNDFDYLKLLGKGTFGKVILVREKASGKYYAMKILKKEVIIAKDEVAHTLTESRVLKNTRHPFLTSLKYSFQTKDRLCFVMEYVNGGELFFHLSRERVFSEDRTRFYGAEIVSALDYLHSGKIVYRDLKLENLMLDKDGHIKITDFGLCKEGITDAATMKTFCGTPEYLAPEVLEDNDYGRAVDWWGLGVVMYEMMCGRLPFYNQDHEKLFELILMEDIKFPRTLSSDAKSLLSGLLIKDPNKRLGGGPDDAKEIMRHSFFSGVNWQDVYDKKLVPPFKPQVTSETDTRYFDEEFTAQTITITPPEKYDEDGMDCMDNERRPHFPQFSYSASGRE
From the text: as §1, §2, §3

[3] = Hygroscopicity test of the crystal form; assay type: physicochemical; conditions: 25° C., 24 hours
Procedure: Three dry glass weighing bottles (with an outer diameter of 50 mm and a height of 30 mm) with a stopper was placed in a desiccator with saturated ammonium chloride solution at the lower part, the glass weighing bottles were left open, the desiccator was covered with lid, and then the desiccator was placed in a 25° C. incubator and left overnight.
The weighing bottle was weighed precisely after placed overnight, the weight was respectively m1 1, m1 2, m1 3
An appropriate amount of the crystal form of the compound of formula (I) was laid flat in the weighing bottles which was already weighed (with the sample thickness of about 1 mm), and was weighed precisely, the weight was respectively m2 1, m2 2, m2 3.
The weighing bottle was left open and was placed together with the stopper in a desiccator with saturated ammonium chloride solution at the lower part, the weighing bottle was left open, the desiccator was covered with lid, and then the desiccator was placed in a 25° C. incubator for 24 hours.
The weighing bottle was covered with its stopper after placed for 24 hours, and then it was weighed precisely, the weight was respectively m3 1, m3 2, m3 3.
The hygroscopic weight gain was calculated, the calculation formula is as follows: Weight gain percentage=100%×(m3−m2)/(m2−m1)

AKT1 = target: T3, AKT1 (Homo sapiens, UniProt P31749); experiment: AKT enzyme activity test (LANCE TR-FRET), AKT1; assay type: biochemical
T3 construct: purchased life technology
T3 sequence (P31749 whole entry): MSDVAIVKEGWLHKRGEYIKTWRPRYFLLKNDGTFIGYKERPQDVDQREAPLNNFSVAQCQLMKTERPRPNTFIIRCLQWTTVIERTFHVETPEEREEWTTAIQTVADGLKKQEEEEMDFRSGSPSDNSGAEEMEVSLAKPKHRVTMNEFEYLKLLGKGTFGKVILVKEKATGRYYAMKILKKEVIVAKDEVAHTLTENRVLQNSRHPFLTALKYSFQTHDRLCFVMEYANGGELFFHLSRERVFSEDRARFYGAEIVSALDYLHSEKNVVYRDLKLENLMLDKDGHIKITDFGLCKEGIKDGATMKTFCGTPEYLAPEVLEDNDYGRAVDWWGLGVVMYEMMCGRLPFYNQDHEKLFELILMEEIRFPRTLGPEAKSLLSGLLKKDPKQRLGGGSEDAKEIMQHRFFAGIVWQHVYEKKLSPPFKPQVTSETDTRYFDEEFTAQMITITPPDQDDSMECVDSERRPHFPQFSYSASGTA
From the text: as §1, §2, §3

[4] = tested on: prostate cancer cell LNCaP overexpressing AKT; experiment: Cytoactive test, cell proliferation (CellTiter-Glo); assay type: cell-based
From the text: This experiment intends to study the inhibitory effect of the compound of formula (I) on the prostate cancer cell LNCaP overexpressing AKT.
The content of ATP directly reflects the number and state of cells, and the number of living cells can be detected by quantitatively measuring ATP. The live cell detection kit contains luciferase and its substrate, with the participation of ATP, luciferase can catalyze the substrate and emit a stable optical signal, the amount of ATP in the cell can be determined by detecting the strength of the signal. Wherein the light signal is proportional to the amount of ATP in the cell, and ATP is positively correlated to the number of living cells, so that the proliferation of the cell can be detected. The detection plate was analyzed by using Envision from PE Company.
LNCaP cells were seeded in a 384-well plate, each well contained 1000 cells.
The cell plate was placed in a carbon dioxide incubator overnight.
The compound was 3-fold diluted with Bravo into 10 compound concentrations, and a double duplicate well experiment was set up.
The compound was transferred to the cell plate at an initial concentration of 10 μM. […]
Promega CellTiter-Glo reagent was added to the cell plate, and incubated at room temperature for 10 minutes to stabilize the luminescence signal, which was read by PerkinElmer Envision multi-label analyzer.

Impurity content, RRT 1.26 ([1]; 60° C./75%RH, 10D): 0.09%
TRS (total impurity content) ([1]; 60° C./75%RH, 10D): 3.47%
Impurity content, RRT 0.95 ([1]; −20° C., 1M): 0.04%
Impurity content, RRT 0.98 ([1]; −20° C., 1M): 0.11%
Impurity content, RRT 0.99 ([1]; −20° C., 1M): 1.38%
Impurity content, RRT 1.02 ([1]; −20° C., 1M): 0.22%
Impurity content, RRT 1.04 ([1]; −20° C., 1M): 0.05%
Impurity content, RRT 1.21 ([1]; −20° C., 1M): 1.52%
Impurity content, RRT 1.26 ([1]; −20° C., 1M): 0.07%
TRS (total impurity content) ([1]; −20° C., 1M): 3.38%
Impurity content, RRT 0.95 ([1]; −20° C., 2M): 0.04%
Impurity content, RRT 0.98 ([1]; −20° C., 2M): 0.10%
Impurity content, RRT 0.99 ([1]; −20° C., 2M): 1.35%
Impurity content, RRT 1.02 ([1]; −20° C., 2M): 0.19%
Impurity content, RRT 1.04 ([1]; −20° C., 2M): 0.04%
Impurity content, RRT 1.21 ([1]; −20° C., 2M): 1.51%
Impurity content, RRT 1.26 ([1]; −20° C., 2M): 0.10%
Impurity content, RRT 1.43 ([1]; −20° C., 2M): 0.05%
TRS (total impurity content) ([1]; −20° C., 2M): 3.38%
Impurity content, RRT 0.95 ([1]; −20° C., 10D): 0.04%
Impurity content, RRT 0.98 ([1]; −20° C., 10D): 0.10%
Impurity content, RRT 0.99 ([1]; −20° C., 10D): 1.37%
Impurity content, RRT 1.02 ([1]; −20° C., 10D): 0.29%
Impurity content, RRT 1.04 ([1]; −20° C., 10D): 0.07%
Impurity content, RRT 1.21 ([1]; −20° C., 10D): 1.47%
Impurity content, RRT 1.26 ([1]; −20° C., 10D): 0.05%
TRS (total impurity content) ([1]; −20° C., 10D): 3.39%
Solubility classification ([2]; 0.1N HCl): barely soluble or insoluble
Solubility classification ([2]; 0.1N NaOH): barely soluble or insoluble
solubility at 30 min ([2]; aqueous buffer, 0.1N NaOH): < 0.1 mg/mL
solubility at 30 min ([2]; organic solvent or mixture, Acetonitrile): < 0.1 mg/mL
solubility at 30 min ([2]; organic solvent or mixture, Dimethyl sulfoxide): 100 to 1000 mg/mL
solubility at 30 min ([2]; organic solvent or mixture, Methanol): 1 to 10 mg/mL
solubility at 30 min ([2]; organic solvent or mixture, N-Methylpyrrolidone): 100 to 1000 mg/mL
solubility at 30 min ([2]; simulated gastric fluid, 0.1N HCl): 0.1 to 1 mg/mL
solubility at 30 min ([2]; Water): < 0.1 mg/mL
Solubility classification ([2]; Acetonitrile): barely soluble or insoluble
Solubility classification ([2]; Dimethyl sulfoxide): quite soluble
Solubility classification ([2]; Methanol): slightly soluble
Solubility classification ([2]; N-Methylpyrrolidone): quite soluble
Solubility classification ([2]; Water): barely soluble or insoluble
inhibition effect against the activity of AKT2 kinase (AKT2): strong inhibition effect
IC50 (AKT2; Akt2 2 nM, ATP 360 μM, read-out: IC50 of inhibition on kinase activity, AKT2): 50.3 nM
inhibition effect against the activity of AKT3 kinase (AKT3): strong inhibition effect
IC50 (AKT3; Akt3 2 nM, ATP 160 μM, read-out: IC50 of inhibition on kinase activity, AKT3): 90.4 nM
Hygroscopicity scale [3]: no or almost no hygroscopicity
Weight gain percentage, Average ([3]; average of 3 samples, saturated ammonium chloride): 0.07%
Weight gain percentage ([3]; single samples 1-3, saturated ammonium chloride): 0.05% and 0.12% and 0.04%
inhibition effect against the activity of AKT1 kinase (AKT1): strong inhibition effect
IC50 (AKT1; Akt1 1.25 nM, ATP 36 μM, read-out: IC50 of inhibition on kinase activity, AKT1): 1.3 nM
IC50 ([4]; Homo sapiens, 72 h, 3 days, read-out: IC50 of inhibition on cell proliferation): 67 nM
Compound: Cc1cnn2c1-c1cc(C(=O)N[C@H](CN)Cc3cccc(F)c3)sc1CCC2.O=C(O)/C=C\C(=O)O
Stability ([1]; high temperature and high humidity): stable under the conditions of high temperature and high humidity; also recorded: relatively stable, and less affected by heat and humidity
inhibitory effect on the growth of LNCaP cells [4]: significant inhibitory effect
